In patent US10851064B2, “ACSS2 inhibitors and methods of use thereof” (METABOMED LTD., priority 2017, dated 2020):
“And” between values parts separate entries of the source, which are not always exact repeats. Equal entries are not always repeated.

Tests used:
[1] = biological target: T1, ACSS2 (Homo sapiens, UniProt Q9NR19); assay: cell-based
Method: Testing the inhibitory effect of compounds on the cellular activity of ACSS2 was done by tracing the incorporation of ^13C from ^13C-acetate into fatty-acids in MDA-MB-468 cells under hypoxic conditions of 1% 02. The assay was done for 5 hours in DMEM with 5.5 mM glucose, 1 mM sodium Pyruvate, 0.65 mM Glutamine, 3.5 ug/ml Biotin, 1% dialyzed serum, 0.5 mM 13C-acetate and with different concentrations of the inhibitors. At the end of the incubation, the cells were washed with cold PBS, harvested into glass tubes and undergo saponification. The level of ^13C incorporation into Palmitate was done by LC-MS analysis and the level of inhibition was calculated with PRISM software.

[2] = biological target: T1, ACSS2; assay: biochemical
Method: ACSS2 Cell-Free Activity Assay (Cell-Free IC50)
The assay is based on a coupling reaction with Pyrophosphatase: ACSS2 is converting ATP+CoA+Acetate=>AMP+pyrophosphate+Acetyl-CoA (Ac-CoA). Pyrophosphatase converts pyrophosphate, a product of the ACSS2 reaction, to phosphate which can be detected by measuring the absorbance at 620 nm after incubation with the Biomol green reagent (Enzo life Science, BML-AK111).
Cell-free IC50 Determination:
At the end of the reaction, Biomol Green was added for 30 minutes at RT and the activity was measured by reading the absorbance at 620 nm.

T1 sequence (Q9NR19 whole entry): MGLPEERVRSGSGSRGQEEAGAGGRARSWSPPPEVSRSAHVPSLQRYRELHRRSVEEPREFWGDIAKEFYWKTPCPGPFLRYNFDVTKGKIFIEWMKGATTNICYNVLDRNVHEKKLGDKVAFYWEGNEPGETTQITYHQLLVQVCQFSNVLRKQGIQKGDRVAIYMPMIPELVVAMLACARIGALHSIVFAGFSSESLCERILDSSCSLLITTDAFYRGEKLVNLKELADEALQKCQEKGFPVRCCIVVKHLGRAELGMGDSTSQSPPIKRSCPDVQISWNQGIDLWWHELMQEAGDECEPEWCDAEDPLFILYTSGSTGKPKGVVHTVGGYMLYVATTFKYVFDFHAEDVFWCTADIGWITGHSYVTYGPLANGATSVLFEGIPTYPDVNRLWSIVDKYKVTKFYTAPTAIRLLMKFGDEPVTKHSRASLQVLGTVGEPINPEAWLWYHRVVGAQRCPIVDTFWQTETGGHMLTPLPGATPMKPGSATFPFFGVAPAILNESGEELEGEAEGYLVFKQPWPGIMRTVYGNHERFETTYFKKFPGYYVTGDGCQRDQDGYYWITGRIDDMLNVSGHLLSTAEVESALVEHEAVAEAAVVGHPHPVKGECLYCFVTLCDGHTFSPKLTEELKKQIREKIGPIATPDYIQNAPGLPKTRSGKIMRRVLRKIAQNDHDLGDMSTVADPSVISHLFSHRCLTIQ

Row | Compound | IC50 [1] | IC50 [2]
1 | CC1=NN(c2ccc(OC(F)(F)F)cc2)C(=O)C1C(=O)Nc1cccc(C(C)(F)F)c1 (centres unmarked) [compound 226] | 50 to 100 nM | 
2 | COc1ccc(N2N=C(C)C(C(=O)Nc3cccc(C(C)(F)F)c3)C2=O)c(C(C)(C)C)c1 (centres unmarked) [compound 305] | > 100 nM | 
3 | CC1=NN(c2ccc(OC(F)F)cc2)C(=O)C1C(=O)Nc1cc(C(C)(F)F)ccc1CO (centres unmarked) [compound 306] | 0.5 to 50 nM | 
4 | CC1=NN(c2ccc(C3CC3)cc2)C(=O)C1C(=O)Nc1cccc(C(C)(F)F)c1 (centres unmarked) [compound 308] | 0.5 to 50 nM | 
5 | COc1ccc(N2N=C(C)C(C(=O)Nc3cccc(C(C)(F)F)c3)C2=O)c(F)c1 (centres unmarked) [compound 314] | 0.5 to 50 nM | 
6 | CCCOc1ccc(N2N=C(C)C(C(=O)Nc3cccc(C(C)(F)F)c3)C2=O)cc1 (centres unmarked) [compound 317] | 0.5 to 50 nM | 
7 | CC1=NN(c2ccc(OC(C)C)cc2)C(=O)C1C(=O)Nc1cccc(C(C)(F)F)c1 (centres unmarked) [compound 318] | 0.5 to 50 nM | 
8 | CC1=NN(c2ccc(OC3CCCC3)cc2)C(=O)C1C(=O)Nc1cccc(C(C)(F)F)c1 (centres unmarked) [compound 319] | 0.5 to 50 nM | 
9 | CC1=NN(c2cc(Br)cc(-c3ccccc3)c2)C(=O)C1C(=O)Nc1cccc(C(C)(F)F)c1 (centres unmarked) [compound 389] |  | 0.01 to 6 nM
10 | CC1=NN(c2cc(-c3ccccc3)cc(-c3cccnc3)c2)C(=O)C1C(=O)Nc1cccc(C(C)(F)F)c1 (centres unmarked) [compound 390] |  | 0.01 to 6 nM
11 | CC1=NN(c2ccc(OC(F)F)cc2)C(=O)C1C(=O)N(C)c1cc(Cl)c(F)c(Cl)c1 (centres unmarked) [compound 391] |  | 100 to 1000 nM
12 | COc1cc(Cl)cc(N(C)C(=O)C2C(=O)N(c3ccc(OC(F)F)cc3)N=C2C)c1 (centres unmarked) [compound 392] |  | 100 to 1000 nM
13 | CC1=NN(c2ccc(OC(F)F)cc2)C(=O)C1C(=O)N(C)c1cc(C)cc(Cl)c1 (centres unmarked) [compound 393] |  | 100 to 1000 nM
14 | CC1=NN(c2ccc(OC(F)F)cc2)C(=O)C1C(=O)N(C)c1cc(F)cc(Cl)c1 (centres unmarked) [compound 394] |  | 100 to 1000 nM
15 | CC1=NN(c2ccc(OC(F)F)cc2)C(=O)C1C(=O)N(C)c1cccc(Cl)c1 (centres unmarked) [compound 395] |  | 100 to 1000 nM
16 | COc1ccc(N2N=C(C)C(C(=O)Nc3cccc(C(C)(F)F)c3)C2=O)cc1-c1ccc(-c2ccccc2)cc1 (centres unmarked) [compound 396] |  | 6 to 100 nM
17 | CC1=NN(c2ccc(OC(F)F)cc2)C(=O)C1C(=O)Nc1cc(C(C)(F)F)cc2c1COC2 (centres unmarked) [compound 397] |  | 100 to 1000 nM and 6 to 100 nM
18 | CCCc1cc(-c2cccnc2)cc(N2N=C(C)C(C(=O)Nc3cccc(C(C)(F)F)c3)C2=O)c1 (centres unmarked) [compound 399] |  | 0.01 to 6 nM
19 | CCCc1cc(-c2ccccc2)cc(N2N=C(C)C(C(=O)Nc3cccc(C(C)(F)F)c3)C2=O)c1 (centres unmarked) [compound 400] |  | 6 to 100 nM
20 | CC1=NN(c2cc(-c3ccccc3)cc(-c3ccccc3)c2)C(=O)C1C(=O)Nc1cccc(C(C)(F)F)c1 (centres unmarked) [compound 401] |  | 6 to 100 nM
21 | COc1c(-c2ccccc2)cc(N2N=C(C)C(C(=O)Nc3cccc(C(C)(F)F)c3)C2=O)cc1-c1ccccc1 (centres unmarked) [compound 402] |  | 6 to 100 nM
22 | CC1=NN(c2ccc(OC(F)F)cc2)C(=O)C1C(=O)Nc1cc(C(C)(F)F)cc2ccoc12 (centres unmarked) [compound 403] |  | 6 to 100 nM

Row | Compound | IC50 [1] | IC50 [2]
23 | CC1=NN(c2cc(Cc3ccccc3Cl)cc(-c3cccnc3)c2)C(=O)C1C(=O)Nc1cccc(C(C)(F)F)c1 (centres unmarked) [compound 406] |  | 0.01 to 6 nM
24 | CC(=O)c1cc(NC(=O)C2C(=O)N(c3ccc(OC(F)F)cc3)N=C2C)c2[nH]ccc2c1 (centres unmarked) [compound 408] |  | 100 to 1000 nM
25 | CC1=NN(c2ccc(OC(F)F)cc2)C(=O)C1C(=O)Nc1cccc(C(C)(F)C(C)C)c1 (centres unmarked) [compound 409] |  | 100 to 1000 nM
26 | CC1=NN(c2cc(Br)cc(Cc3ccccc3Cl)c2)C(=O)C1C(=O)Nc1cccc(C(C)(F)F)c1 (centres unmarked) [compound 412] |  | 0.01 to 6 nM
27 | CC(O)(c1ccccc1)c1cccc(NC(=O)C2C=NN(c3ccc(OC(F)F)cc3)C2=O)c1 (centres unmarked) [compound 416] |  | 6 to 100 nM
28 | CC1=NN(c2cc(C)cc(-c3ncco3)c2)C(=O)C1C(=O)Nc1cccc(C(C)(F)F)c1 (centres unmarked) [compound 420] |  | 0.01 to 6 nM
29 | CC1=NN(c2ccc(B(O)O)cc2)C(=O)C1C(=O)Nc1cccc(C(C)(F)F)c1 (centres unmarked) [compound 421] |  | 0.01 to 6 nM
30 | CC1=NN(c2ccc(Br)cc2)C(=O)C1C(=O)Nc1cccc(C(C)(F)F)c1 (centres unmarked) [compound 422] |  | 0.01 to 6 nM
31 | COc1ccc(N2N=C(C)C(C(=O)Nc3cccc(C(C)(F)F)c3)C2=O)cc1-c1nnc(C)o1 (centres unmarked) [compound 430] |  | 0.01 to 6 nM
32 | CCC(F)(F)c1cccc(NC(=O)C2C(=O)N(c3ccc(OC)cc3)N=C2C)c1 (centres unmarked) [compound 435] |  | 0.01 to 6 nM
33 | CC1=NN(c2ccc(OC3COC3)cc2)C(=O)C1C(=O)Nc1cccc(C(C)(F)F)c1 (centres unmarked) [compound 439] |  | 0.01 to 6 nM
34 | CC1=NN(c2ccc(OC3CCC3)cc2)C(=O)C1C(=O)Nc1cccc(C(C)(F)F)c1 (centres unmarked) [compound 440] |  | 0.01 to 6 nM
35 | CC1=NN(c2ccc(OC(C)(C)C)cc2)C(=O)C1C(=O)Nc1cccc(C(C)(F)F)c1 (centres unmarked) [compound 441] |  | 0.01 to 6 nM
36 | CC1=NN(c2ccc(OC3CCCCC3)cc2)C(=O)C1C(=O)Nc1cccc(C(C)(F)F)c1 (centres unmarked) [compound 443] |  | 0.01 to 6 nM
37 | CCC(C)Oc1ccc(N2N=C(C)C(C(=O)Nc3cccc(C(C)(F)F)c3)C2=O)cc1 (centres unmarked) [compound 444] |  | 0.01 to 6 nM
38 | CC1=NN(c2ccc(OC3CCCC3)cc2)C(=O)C1C(=O)Nc1cccc(C(C)(F)F)c1 (centres unmarked) [compound 446] |  | 0.01 to 6 nM
39 | CC1=NN(c2ccc(OC(C)C)cc2)C(=O)C1C(=O)Nc1cccc(C(C)(F)F)c1 (centres unmarked) [compound 447] |  | 0.01 to 6 nM
40 | CCCOc1ccc(N2N=C(C)C(C(=O)Nc3cccc(C(C)(F)F)c3)C2=O)cc1 (centres unmarked) [compound 448] |  | 0.01 to 6 nM
41 | COc1ccc(N2N=C(C)C(C(=O)Nc3cccc(C(C)(F)F)c3)C2=O)c(F)c1 (centres unmarked) [compound 451] |  | 0.01 to 6 nM
42 | CC1=NN(c2ccc(C3CC3)cc2)C(=O)C1C(=O)Nc1cccc(C(C)(F)F)c1 (centres unmarked) [compound 457] |  | 0.01 to 6 nM
43 | CC1=NN(c2ccc(OC(F)F)cc2)C(=O)C1C(=O)Nc1cc(C(C)(F)F)ccc1CO (centres unmarked) [compound 459] |  | 0.01 to 6 nM
44 | COc1ccc(N2N=C(C)C(C(=O)Nc3cccc(C(C)(F)F)c3)C2=O)c(C(C)(C)C)c1 (centres unmarked) [compound 460] |  | 0.01 to 6 nM

Next, values leading:

Row | IC50 [1] | IC50 [2] | Compound
45 | 0.5 to 50 nM |  | CC1=NN(c2ccc(OC(F)F)cc2F)C(=O)C1C(=O)Nc1cccc(C(C)(F)F)c1 (centres unmarked) [compound 309]
46 | 0.5 to 50 nM |  | CC1=NN(c2ccc(OC(F)F)c(-c3cccnc3)c2)C(=O)C1C(=O)Nc1cccc(C(C)(F)F)c1 (centres unmarked) [compound 310]
47 | 0.5 to 50 nM |  | COc1cc(N2N=C(C)C(C(=O)Nc3cccc(C(C)(F)F)c3)C2=O)ccc1OC(F)F (centres unmarked) [compound 311]
48 | 50 to 100 nM |  | CC1=NN(c2ccc(OC(F)F)c(-c3ccccc3)c2)C(=O)C1C(=O)Nc1cccc(C(C)(F)F)c1 (centres unmarked) [compound 312]
49 | 0.5 to 50 nM |  | COc1ccc(N2N=C(C)C(C(=O)Nc3cccc(C(C)(F)F)c3)C2=O)cc1-c1ccccc1 (centres unmarked) [compound 313]
50 | 0.5 to 50 nM |  | CC1=NN(c2ccc(OC(F)F)c(-c3ccncc3)c2)C(=O)C1C(=O)Nc1cccc(C(C)(F)F)c1 (centres unmarked) [compound 315]
51 | 0.5 to 50 nM |  | CC1=NN(c2ccc(OC(F)F)c(-c3cncnc3)c2)C(=O)C1C(=O)Nc1cccc(C(C)(F)F)c1 (centres unmarked) [compound 316]
52 |  | 0.01 to 6 nM | CC1=NN(c2cccc(Br)c2)C(=O)C1C(=O)Nc1cccc(C(C)(F)F)c1 (centres unmarked) [compound 404]
53 |  | 6 to 100 nM | CC1=NN(c2ccc3[nH]cnc3c2)C(=O)C1C(=O)Nc1cccc(C(C)(F)F)c1 (centres unmarked) [compound 405]
54 |  | 0.01 to 6 nM | CC1=NN(c2ccc(OC(F)F)c(-c3noc(C)n3)c2)C(=O)C1C(=O)Nc1cccc(C(C)(F)F)c1 (centres unmarked) [compound 407]
55 |  | 0.01 to 6 nM | CC1=NN(c2ccc3cc[nH]c3c2)C(=O)C1C(=O)Nc1cccc(C(C)(F)F)c1 (centres unmarked) [compound 410]
56 |  | 0.01 to 6 nM | CC1=NN(c2ccc(OC(F)F)c(-c3ncc(C)o3)c2)C(=O)C1C(=O)Nc1cccc(C(C)(F)F)c1 (centres unmarked) [compound 415]
57 |  | 100 to 1000 nM | COc1ccc(N2N=C(C)C(C(=O)Nc3cccc(C(C)(F)F)c3)C2=O)cc1-c1ccc[n+]([O-])c1 (centres unmarked) [compound 417]
58 |  | 100 to 1000 nM | CC1=NN(c2ccc(OC(F)F)cc2)C(=O)C1C(=O)Nc1cccc(C(C)(F)F)c1 (centres unmarked) [compound 418]
59 |  | 0.01 to 6 nM | CC1=NN(c2ccc3[nH]ccc3c2)C(=O)C1C(=O)Nc1cccc(C(C)(F)F)c1 (centres unmarked) [compound 419]
60 |  | 0.01 to 6 nM | CC1=NN(c2ccc(OC(F)F)c(-c3nnc(C)o3)c2)C(=O)C1C(=O)Nc1cccc(C(C)(F)F)c1 (centres unmarked) [compound 429]
61 |  | 0.01 to 6 nM | COc1ccc(N2N=C(C)C(C(=O)Nc3cccc(C(C)(F)F)c3)C2=O)cc1-c1ccncc1 (centres unmarked) [compound 431]
62 |  | 0.01 to 6 nM | COc1ccc(N2N=C(C)C(C(=O)Nc3cccc(C(C)(F)F)c3)C2=O)cc1-c1cnccn1 (centres unmarked) [compound 433]
63 |  | 0.01 to 6 nM | COc1ccc(N2N=C(C)C(C(=O)Nc3cccc(C(C)(F)F)c3)C2=O)cc1-c1ccccn1 (centres unmarked) [compound 434]
64 |  | 0.01 to 6 nM | CC1=NN(c2ccc(OC(F)F)c(-c3cnccn3)c2)C(=O)C1C(=O)Nc1cccc(C(C)(F)F)c1 (centres unmarked) [compound 437]
65 |  | 0.01 to 6 nM | CC1=NN(c2ccc(OC(F)F)c(-c3ccccn3)c2)C(=O)C1C(=O)Nc1cccc(C(C)(F)F)c1 (centres unmarked) [compound 438]
66 |  | 0.01 to 6 nM | COc1ccc(N2N=C(C)C(C(=O)Nc3cccc(C(C)(F)F)c3)C2=O)cc1-c1cncnc1 (centres unmarked) [compound 442]
67 |  | 0.01 to 6 nM | COc1ccc(N2N=C(C)C(C(=O)Nc3cccc(C(C)(F)F)c3)C2=O)cc1-c1cccnc1 (centres unmarked) [compound 445]
68 |  | 0.01 to 6 nM | CC1=NN(c2ccc(OC(F)F)c(-c3cncnc3)c2)C(=O)C1C(=O)Nc1cccc(C(C)(F)F)c1 (centres unmarked) [compound 449]
69 |  | 0.01 to 6 nM | CC1=NN(c2ccc(OC(F)F)c(-c3ccncc3)c2)C(=O)C1C(=O)Nc1cccc(C(C)(F)F)c1 (centres unmarked) [compound 450]
70 |  | 0.01 to 6 nM | COc1ccc(N2N=C(C)C(C(=O)Nc3cccc(C(C)(F)F)c3)C2=O)cc1-c1ccccc1 (centres unmarked) [compound 452]
71 |  | 0.01 to 6 nM | CC1=NN(c2ccc(OC(F)F)c(-c3ccccc3)c2)C(=O)C1C(=O)Nc1cccc(C(C)(F)F)c1 (centres unmarked) [compound 453]
72 |  | 0.01 to 6 nM | COc1cc(N2N=C(C)C(C(=O)Nc3cccc(C(C)(F)F)c3)C2=O)ccc1OC(F)F (centres unmarked) [compound 454]
73 |  | 0.01 to 6 nM | CC1=NN(c2ccc(OC(F)F)c(-c3cccnc3)c2)C(=O)C1C(=O)Nc1cccc(C(C)(F)F)c1 (centres unmarked) [compound 455]
74 |  | 0.01 to 6 nM | CC1=NN(c2ccc(OC(F)F)cc2F)C(=O)C1C(=O)Nc1cccc(C(C)(F)F)c1 (centres unmarked) [compound 456]
